Test system: strain 4G-1
Test: Growth of isolated strain 4G-1 on media comprising glyphosate or Ampicillin
Format: cell-based, Pseudomonas putida
Protocol: The sample were taken from neighborhood of a glyphosate producing factory in Hebei Province, China, and were diluted and spread on mediums comprising glyphosate. A total of 48 strains are isolated with high tolerance and degradation ability to glyphosate. One strain of them, 4G-1, is able to grow on a medium with 400 mM glyphosate, and is resistant to 100 mg/L Ampicillin. Said strain is selected for further studies.
The resulting products are purified by a purification method for PCR product, and are ligated to a T vector (Takara, Dalian) according to the instruction of manufacturer Takara to obtain plasmid pKU2000. […] Using BLAST software and BLASTP 2.2.2 [Dec. […] Thus, strain 4G-1 is thought to be P. putida, and is designated as P. putida 4G-1 (abbreviated as P. P4G-1). Said strain is deposited on Apr. 30, 2002 at the Chinese General Microbiological Culture Centre (CGMCC) (ZhongGuan Cun, Beijing, China) with the accession number CGMCC 0739.

SMILES | resistance of strain 4G-1 to Ampicillin (100 mg/L Ampicillin) | growth of strain 4G-1 on medium with glyphosate (400 mM glyphosate)
CC1(C)S[C@@H]2[C@H](NC(=O)[C@H](N)c3ccccc3)C(=O)N2[C@H]1C(=O)O [Ampicillin] | resistant | –
O=C(O)CNCP(=O)(O)O [glyphosate, N-phosphylmethyl glycine] | – | able to grow
